Experimental findings from BindingDB's records for doi:10.1021/jm970265x (Glaxo Wellcome Research and Development, 1997) are described below.

Several values for one entry are separate records, joined by “and”; a condition that tells them apart may be missing. Equal entries are not always repeated.

The assay has as its target T1, Gastrin/cholecystokinin type B receptor (Homo sapiens, UniProt P32239).
T1 sequence (P32239 whole entry): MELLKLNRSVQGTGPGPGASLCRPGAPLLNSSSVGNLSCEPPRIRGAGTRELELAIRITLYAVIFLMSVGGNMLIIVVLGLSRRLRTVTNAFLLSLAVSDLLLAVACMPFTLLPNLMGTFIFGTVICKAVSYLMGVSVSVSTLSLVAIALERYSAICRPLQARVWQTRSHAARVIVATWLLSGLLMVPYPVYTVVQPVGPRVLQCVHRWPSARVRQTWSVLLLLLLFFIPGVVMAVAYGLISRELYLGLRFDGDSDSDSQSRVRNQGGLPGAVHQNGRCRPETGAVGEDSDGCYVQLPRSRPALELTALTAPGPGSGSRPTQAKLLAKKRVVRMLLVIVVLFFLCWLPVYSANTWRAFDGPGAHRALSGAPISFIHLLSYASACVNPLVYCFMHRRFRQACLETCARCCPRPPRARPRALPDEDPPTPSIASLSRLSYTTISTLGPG
For `COc1ccc(N(C(=O)CN2C(=O)C(Cc3n[nH]c4c(F)cccc34)C(=O)N(c3ccccc3)c3ccccc32)C(C)C)cc1` (stereo not drawn) [CCK-A Agonist 34], the Ki was determined as 1050 nM. Then `COc1ccccc1N(C(=O)CN1C(=O)C(Cc2n[nH]c3ccccc23)C(=O)N(c2ccccc2)c2ccccc21)C(C)C` (stereo not drawn) [CCK-A Agonist 41], with 129 nM.

With `CC(C)N(C(=O)CN1C(=O)C(Cc2n[nH]c3ccccc23)C(=O)N(c2ccccc2)c2ccccc21)c1ccccc1` (stereo not drawn) [CCK-A Agonist 37], the inhibition constant (Ki) was 87.1 nM and 178 nM.

As for `CC(C)(C)N(C(=O)CN1C(=O)C(Cc2n[nH]c3ccccc23)C(=O)N(c2ccccc2)c2ccccc21)c1ccccc1` (stereo not drawn) [CCK-A Agonist 45], affinity was put at a Ki of 891 nM. The same measure for `CC(C)N(C(=O)CN1C(=O)C(Cc2n[nH]c3ccccc23)C(=O)N(c2ccccc2)c2ccccc21)c1ccc2c(c1)OCO2` (stereo not drawn) [CCK-A Agonist 42]: 724 nM; for `COc1cccc(N(C(=O)CN2C(=O)C(Cc3n[nH]c4ccccc34)C(=O)N(c3ccccc3)c3ccccc32)C(C)C)c1` (stereo not drawn) [CCK-A Agonist 40]: 479 nM and 191 nM. The same measure for `CC(C)N(C(=O)CN1C(=O)C(Cc2n[nH]c3ccccc23)C(=O)N(c2ccccc2)c2ccccc21)c1ccc(C(F)(F)F)cc1` (stereo not drawn) [CCK-A Agonist 39]: 1660 nM; for `CC(C)N(C(=O)CN1C(=O)C(Cc2n[nH]c3ccccc23)C(=O)N(c2ccccc2)c2ccccc21)c1ccc(F)cc1` (stereo not drawn) [CCK-A Agonist 38]: 138 nM and 479 nM.
